Laboratory results taken from PMC11820905, “Rational Design, Synthesis, and In Vitro Activity of Heterocyclic Gamma-Butyrobetaines as Potential Carnitine Acetyltransferase Inhibitors” (Molecules, 2025).

What was measured:
[1] = target: T1, Carnitine acetyltransferase isolated from pigeon breast muscle (Columba livia, UniProt P52826); test: CAT inhibition, IC50 determination (DTNB/Ellman reaction, absorbance at 405 nm); type: biochemical; settings: c(L-carnitine) = 50.56 μM; 5 min preincubation at 37 °C; eight inhibitor concentrations, triplicate over three days
T1 construct: CAT (isolated from pigeon breast muscle, ammonium sulfate suspension, CAS Number: 9029-90-7); purchased Sigma-Aldrich; host or cells: pigeon breast muscle (tissue-purified enzyme)
T1 sequence (P52826 31-627): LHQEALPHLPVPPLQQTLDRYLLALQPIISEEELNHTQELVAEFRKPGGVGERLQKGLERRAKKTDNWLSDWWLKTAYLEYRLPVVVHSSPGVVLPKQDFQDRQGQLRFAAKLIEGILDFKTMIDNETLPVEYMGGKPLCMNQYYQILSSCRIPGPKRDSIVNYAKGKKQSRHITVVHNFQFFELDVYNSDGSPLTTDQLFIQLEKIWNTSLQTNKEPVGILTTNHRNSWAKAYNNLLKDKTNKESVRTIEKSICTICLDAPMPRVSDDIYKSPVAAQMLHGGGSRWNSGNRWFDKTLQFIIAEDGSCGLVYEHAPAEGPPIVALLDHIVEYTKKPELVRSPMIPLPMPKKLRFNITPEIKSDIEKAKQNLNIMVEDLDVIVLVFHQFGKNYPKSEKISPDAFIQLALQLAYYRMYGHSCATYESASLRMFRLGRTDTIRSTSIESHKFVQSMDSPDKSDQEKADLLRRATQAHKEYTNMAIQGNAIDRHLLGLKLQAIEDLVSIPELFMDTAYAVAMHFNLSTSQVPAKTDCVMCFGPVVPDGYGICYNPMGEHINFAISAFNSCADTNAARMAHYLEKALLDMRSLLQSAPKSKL
Text: To assess the impact of the synthesized compounds on CAT activity and establish the structure-activity relationship, we initially determined the concentration needed to reduce the enzyme activity by 50% (IC50) under the same reaction conditions. We slightly modified a method proposed by Marquis and Fritz, which allows for the quantification of the consumed L-carnitine by observing its conversion to acetyl L-carnitine using a reaction with 5,5′-dithiobis-(2-nitrobenzoic acid) (DTNB or Ellman’s reagent) and CoA to produce 2-nitro-5-thiobenzoic acid (TNB). We opted to determine the IC50 at a substrate concentration that yields a [S]/Km ratio of about 0.01 (c(L-carnitine) = 50.56 μM and Km = 3.0 mM) to ensure that the IC50 is virtually independent of [S]. We also used a kinetic approach, measuring the reaction rate over a time interval Δt, during which the dependence is linear (approximately 10–15% substrate conversion). The readings were taken within the first minute after the reaction began, and the degree of inhibition was determined as described in Section 3.3.1. The IC50 values for each compound were obtained by analyzing the percentage inhibition at eight different inhibitor concentrations, with each measurement conducted in triplicate over three consecutive days. The average values of the IC50 obtained are outlined in Figure 4.
(§1) Carnitine acetyltransferase isolated from pigeon breast muscle, ammonium sulfate suspension (CAS Number: 9029-90-7), with activity 71 U/mg protein (1U converts 1 μmol L-carnitine and 1 μmol AcCoA in Acetylcarnitine and free CoA in 1 min) was diluted with phosphate buffer (0.5 M, pH = 7.6) to obtain stock solution with concentration 24 U/mL. Ellman reagent was freshly prepared just before use by dissolving 25 mg DTNB in 5 mL 1 mM solution of Na2EDTA in phosphate buffer (0.5 M, pH = 7.6), the final concentration of DTNB in this solution being 12.8 mM. AcCoA, L-carnitine, and each of the tested compounds were dissolved in distilled water in order to obtain desired stock solutions with concentration c (AcCoA) = 348.0 μM and c (L-carnitine) = 303.4 μM (for IC50 determination). Tris-buffer solution was prepared by dissolving Tris. HCl in distilled water and pH was adjusted with NaOH to pH = 7.6, the final concentration of the solution being 1 M. The final volume of the reaction mixture was 300 μL, which included 50 μL of each stock solution of CAT, AcCoA, L-carnitine, DTNB, Tris-buffer, and test compound. In control probes, 50 μL distilled water was added instead of test compound. A mixture of CAT, AcCoA, DTNB, Tris-buffer, and test compounds were incubated for 5 min at 37 °C. The reaction was initiated by adding L-carnitine, and the reaction rate was monitored by measuring the absorbance at 405 nm.
Inhibition activity was assessed by calculating the reaction rate during the initial minute, within the linear range of A/t, utilizing the following formula:%Inh = 100 × ((ΔA/Δt)control − (ΔA/Δt) Inh)/((ΔA/Δt) control)
To obtain preliminary data for the IC50 values, we initially screened each compound at a final concentration of 5 mM. […] The half-maximal inhibitory concentration (IC50) was determined by plotting the response (A) against the concentration (c) of the inhibitor. All analyses were performed in triplicate over three consecutive days, and the corresponding IC50 values were averaged.

[2] = target: CAT; design: method as in PMID 19912061; settings: comparison value for the established drug; no kinetic study of it described here; no reference printed at the place (cf. ref 44); cited from earlier work
[3] = target: T1, Carnitine acetyltransferase isolated from pigeon breast muscle; test: CAT enzyme kinetics, mechanism of inhibition and Ki; type: biochemical
Method: Substrate concentrations were selected in the range of 0.2 to five times the Km value (Km = 0.3 mM) to facilitate effective inhibition detection at elevated levels while ensuring sufficient substrate availability for the reaction at increased inhibitor concentrations. […] The experiments enabled identification of the inhibition mechanism alongside calculations of Km, Vmax, and Ki. We utilized SigmaPlot version 12.5 (Systat Software Inc. San Jose, CA, USA), which incorporates modules for regression analysis and various inhibition models. The numerical results are summarized in Table 3, while the corresponding Lineweaver –Burk and Michaelis–Menten kinetic plots are available in the Supplementary Materials.
as §1, with “HCl in distilled water and pH was adjusted with NaOH to pH = 7.6, the final concentration of the solution being 1 M. The final volume of the reaction mixture was 300 μL, which included 50 μL of each stock solution of CAT, AcCoA, L-carnitine, DTNB, Tris-buffer, and test compound. In control probes, 50 μL distilled water was added instead of test compound. A mixture of CAT, AcCoA, DTNB, Tris-buffer, and test compounds were incubated for 5 min at 37 °C.” left out
The absorbance at 405 nm was measured every 6 s between the 30th second and the 3rd minute for all probes (in the linear range). The initial velocity (v0) was determined as the intercept of the velocity (v) versus time (t) graph. […]

| SMILES | IC50 [1] | also measured |
| --- | --- | --- |
| CCOC(=O)CCC[N+]1(C)CCCC1 [Compound 1-ester, 1-(4-ethoxy-4-oxobutyl)-1-methylpyrrolidin-1-ium bromide] | 28.5 ± 0.6 mM | – |
| CCOC(=O)CCC[N+]1(C)CCCCC1 [Compound 2-ester, 1-(4-ethoxy-4-oxobutyl)-1-methylpiperidin-1-ium bromide] | 22.8 ± 1.8 mM | – |
| CCOC(=O)CCC[N+]1(C)CCOCC1 [Compound 3-ester, 4-(4-ethoxy-4-oxobutyl)-4-methylmorpholin-4-ium bromide] | 29.9 ± 1.5 mM | – |
| C[N+](C)(C)NCCC(=O)[O-] [Meldonium, reference compound] | 11.4 mM | Ki [2]: 1.63 mM |
| C[N+]1(CCCC(=O)[O-])CCOCC1 [Morph-GBB, 4-(4-methylmorpholino-4-ium)butanoate] | 23.7 ± 2.2 mM | – |
| O=C([O-])CCC[n+]1ccccc1 [Pyr-GBB, 4-(pyridin-1-ium-1-yl)butanoate] | 43.6 ± 4.2 mM | – |
| O=C([O-])CCC[n+]1ccc2ccccc2c1 [i-qui-GBB, 4-(isoquinolin-2-ium-2-yl)butanoate] | 2.24 ± 0.21 mM | Type of inhibition of CAT ([3]; best fit: highest R^2, lowest AIC): competitive inhibitor; Ki ([3]; competitive model, nonlinear regression (SigmaPlot), inhibitor 1.88 mM and 3.75 mM): 3.5 mM; Inhibition of CAT reaction rate versus blank samples ([3]; inhibitor concentration 0.94 mM): lack of inhibition |

More lines, main results first:

| IC50 [1] | SMILES | also measured |
| --- | --- | --- |
| 10.4 ± 1.5 mM | CN(C)c1cc[n+](CCCC(=O)[O-])cc1 [DMAP-GBB, 4-(4-(dimethylamino)pyridin-1-ium-1-yl)butanoate] | – |
| 9.32 ± 0.47 mM | CC[N+](C)(C)CCCC(=O)[O-] [MeGBB, 4-(ethyldimethylammonio)butanoate, reference compound] | – |
| 21.6 ± 1.4 mM | CCOC(=O)CCC[N+](C)(C)CC [MeGBB-ester, 4-ethoxy-N-ethyl-N,N-dimethyl-4-oxobutan-1-aminium bromide, reference compound] | – |
| 14 ± 0.9 mM | Cn1cc[n+](CCCC(=O)[O-])c1 [Mim-GBB, 4-(1-methyl-1H-imidazol-3-ium-3-yl)butanoate] | – |
| 5.78 ± 1.2 mM | C[N+]1(CCCC(=O)[O-])CCCCC1 [Pip-GBB, 4-(1-methylpiperidin-1-ium-1-yl)butanoate] | – |
| 14.1 ± 1.91 mM | C[N+]1(CCCC(=O)[O-])CCCC1 [Pyrr-GBB, 4-(1-methylpyrrolidin-1-ium-1-yl)butanoate] | – |
